Counter-ions that a name gives are not always drawn.
Each compound was assayed against human activated kallikrein enzyme (Homo sapiens, UniProt P03952) (assay: Inhibition of human activated kallikrein enzyme, fluorogenic peptide substrate assay (500 pM enzyme format)). Settings: 500 pM activated kallikrein, 300 μM PFR-AMC substrate, 30 min preincubation, 10 min reaction, room temperature; read-out: Primary Dose Response Assay: Average EC50.
Chain of human activated kallikrein enzyme (P03952 391-638 limits assumed): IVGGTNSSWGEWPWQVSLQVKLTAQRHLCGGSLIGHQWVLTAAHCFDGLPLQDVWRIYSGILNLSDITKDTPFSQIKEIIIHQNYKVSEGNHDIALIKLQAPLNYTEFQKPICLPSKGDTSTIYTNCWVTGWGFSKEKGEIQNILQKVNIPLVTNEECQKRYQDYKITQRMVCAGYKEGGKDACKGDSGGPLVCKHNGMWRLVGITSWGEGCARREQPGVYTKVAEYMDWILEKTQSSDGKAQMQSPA
Chain of human activated kallikrein enzyme (P03952 20-390 partner limits assumed): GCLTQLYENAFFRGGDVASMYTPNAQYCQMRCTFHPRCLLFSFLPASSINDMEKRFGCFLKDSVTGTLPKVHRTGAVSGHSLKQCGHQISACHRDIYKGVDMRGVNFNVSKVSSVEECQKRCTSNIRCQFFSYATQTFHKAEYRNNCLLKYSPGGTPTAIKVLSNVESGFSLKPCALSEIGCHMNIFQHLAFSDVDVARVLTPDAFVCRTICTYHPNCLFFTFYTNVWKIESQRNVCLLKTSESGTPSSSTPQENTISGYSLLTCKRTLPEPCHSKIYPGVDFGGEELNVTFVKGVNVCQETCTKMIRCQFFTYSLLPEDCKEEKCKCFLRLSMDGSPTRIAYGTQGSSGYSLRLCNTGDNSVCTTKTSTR
Assay type: biochemical
Procedure: Compounds were evaluated for inhibition of the human activated kallikrein enzyme in two formats of an assay employing a fluorogenic peptide substrate. In one assay format, the concentrations of reagents were as follows: 20 mM Tris pH 7.5, 1 mM EDTA, 150 mM sodium chloride, 0.1% PEG-400, 0.1% Triton X-100, 500 pM activated kallikrein enzyme, 300 μM Pro-Phe-Arg-7-amido-4-methylcoumarin (PFR-AMC) substrate. Prior to reaction initiation with substrate, enzyme and inhibitors were preincubated for 30 min at room temperature. After initiation with substrate, reactions were incubated for 10 min at room temperature and fluorescence emission at 460 nm from 380 nm excitation measured with a microplate reader. In another assay format, the concentrations of reagents were as follows: 20 mM Tris pH 7.5, 1 mM EDTA, 150 mM sodium chloride, 0.1% PEG-400, 0.1% Triton X-100, 5 pM activated kallikrein enzyme, 300 uM PFR-AMC substrate. Prior to reaction initiation with substrate, enzyme and inhibitors were preincubated for 30 min at room temperature. After initiation with substrate, reactions were incubated for 18 hr at room temperature and fluorescence emission at 460 nm from 380 nm excitation measured with a microplate reader.
Table 1 provides the results of the assay in the format with 500 pM activated kallikrein assay. For the compounds listed in Table 1, the EC50 values are reported according to the following ranges: A≤5.0 nM; 5.0 nM<B≤50 nM; 50 nM<C≤500 nM; 500 nM<D≤9000 nM; 9000 nM<E.
Work on `CC(C)(C(=O)Nc1cc(NCc2cn3cc(C4CC4)ccc3n2)ncn1)c1ncn2ccc(Cl)cc12` [Example 5, 2-(7-chloroimidazo[1,5-a]pyridin-1-yl)-N-(6-(((6-cyclopropylimidazo[1,2-a]pyridin-2-yl)methyl)amino)pyrimidin-4-yl)-2-methylpropanamide] yielded an EC50 of 500 to 9000 nM.
For `O=C(Cc1ncn2ccc(Br)c(F)c12)Nc1cc(NCc2cn3cc(C4CC4)ccc3n2)ncn1` [Example 53, 2-(7-bromo-8-fluoroimidazo[1,5-a]pyridin-1-yl)-N-(6-(((6-cyclopropylimidazo[1,2-a]pyridin-2-yl)methyl)amino)pyrimidin-4-yl)acetamide], the EC50 was no more than 5 nM.
Compound `O=C(Cc1ncn2ccc(Cl)cc12)Nc1cc(NCc2cn3cc(C4CC4)ccc3n2)nc(C(F)(F)F)n1` [Example 101, 2-(7-chloroimidazo[1,5-a]pyridin-1-yl)-N-(6-(((6-cyclopropylimidazo[1,2-a]pyridin-2-yl)methyl)amino)-2-(trifluoromethyl)pyrimidin-4-yl)acetamide] has an EC50 of 5 to 50 nM.
`COc1ccnc(CC(=O)Nc2cc(NCc3cn4cc(C5CC5)cc(N5CCCC5=O)c4n3)ccn2)c1F` [Example 24, N-(4-(((6-cyclopropyl-8-(2-oxopyrrolidin-1-yl)imidazo[1,2-a]pyridin-2-yl)methyl)amino)pyridin-2-yl)-2-(3-fluoro-4-methoxypyridin-2-yl)acetamide] showed an EC50 of 5 to 50 nM.
`O=C(Cc1ncn2ccc(Cl)cc12)Nc1cc(OCc2cn3cc(C4CC4)ccc3n2)ncn1` [Example 33, 2-(7-chloroimidazo[1,5-a]pyridin-1-yl)-N-(6-((6-cyclopropylimidazo[1,2-a]pyridin-2-yl)methoxy)pyrimidin-4-yl)acetamide] showed an EC50 of 5 to 50 nM.
For `COc1ccc(=O)n(CC(=O)Nc2cc(NCc3cn4cc(C5CC5)ccc4n3)ncn2)c1` [Example 121, N-(6-(((6-cyclopropylimidazo[1,2-a]pyridin-2-yl)methyl)amino)pyrimidin-4-yl)-2-(5-methoxy-2-oxopyridin-1 (2H)-yl)acetamide], the EC50 was greater than 9000 nM.
`COc1ccc2oc(=O)n(CC(=O)Nc3cc(NCc4cn5cc(C6CC6)ccc5n4)ccn3)c2c1` [Example 125, N-(4-(((6-cyclopropylimidazo[1,2-a]pyridin-2-yl)methyl)amino)pyridin-2-yl)-2-(5-methoxy-2-oxobenzo[d]oxazol-3 (2H)-yl)acetamide] gave an EC50 greater than 9000 nM.
Work on `CCCCCCOC(=O)NC(=N)c1cc(C)c(CNc2cc(OCc3cn4cc(C5CC5)ccc4n3)nc(CCC(=O)OCC)n2)c(C)c1` [Example 75, ethyl 3-(4-((6-cyclopropylimidazo[1,2-a]pyridin-2-yl)methoxy)-6-((4-(N-((hexyloxy)carbonyl)carbamimidoyl)-2,6-dimethylbenzyl)amino)pyrimidin-2-yl)propanoate] yielded an EC50 of 50 to 500 nM.
In the case of `O=C(Cc1ncnc2ccc(Cl)cc12)Nc1cc(NCc2cn3cc(C4CC4)ccc3n2)ncn1` [Example 104, 2-(6-chloroquinazolin-4-yl)-N-(6-(((6-cyclopropylimidazo[1,2-a]pyridin-2-yl)methyl)amino)pyrimidin-4-yl)acetamide], the EC50 is reported as greater than 9000 nM.
With `Cc1cc(C(=N)N)cc(C)c1CNc1cc(NCc2cn3cc(C4CC4)ccc3n2)ncn1` [Example 99, 4-(((6-(((6-cyclopropylimidazo[1,2-a]pyridin-2-yl)methyl)amino)pyrimidin-4-yl)amino)methyl)-3,5-dimethylbenzimidamide] the EC50 was no more than 5 nM.
`O=C(/C=C/c1cccc(Cl)c1)Nc1cc(NCc2cn3cc(C4CC4)ccc3n2)ncn1` [Example 50, (E)-3-(3-chlorophenyl)-N-(6-(((6-cyclopropylimidazo[1,2-a]pyridin-2-yl)methyl)amino)pyrimidin-4-yl)acrylamide] was tested, and the EC50 was 5 to 50 nM.
`O=C(COc1cc(Cl)ccc1-n1cnnn1)Nc1cc(NCc2cn3cc(C4CC4)ccc3n2)ccn1` [Example 116, 2-(5-chloro-2-(1H-tetrazol-1-yl)phenoxy)-N-(4-(((6-cyclopropylimidazo[1,2-a]pyridin-2-yl)methyl)amino)pyridin-2-yl)acetamide] was tested, and the EC50 was 5 to 50 nM.
Compound `O=C(Cc1cc2c(Cl)c[nH]c2cc1F)Nc1cc(NCc2cn3cc(C4CC4)ccc3n2)ncn1` [Example 131, 2-(3-chloro-6-fluoro-1H-indol-5-yl)-N-(6-(((6-cyclopropylimidazo[1,2-a]pyridin-2-yl)methyl)amino)pyrimidin-4-yl)acetamide] has an EC50 of 500 to 9000 nM.
With `NC(=O)c1ccc(Cl)cc1CC(=O)Nc1cc(NCc2cn3cc(C4CC4)ccc3n2)ncn1` [Example 11, 4-chloro-2-(2-((6-(((6-cyclopropylimidazo[1,2-a]pyridin-2-yl)methyl)amino)pyrimidin-4-yl)amino)-2-oxoethyl)benzamide] the EC50 was 500 to 9000 nM.
With `Nc1nccc2c1CCC2Nc1cc(NCc2cn3cc(C4CC4)ccc3n2)ncn1` (stereo not shown) [Example 56, N^5-(6-(((6-cyclopropylimidazo[1,2-a]pyridin-2-yl)methyl)amino)pyrimidin-4-yl)-6,7-dihydro-5H-cyclopenta[c]pyridine-1,5-diamine] the EC50 was 5 to 50 nM.
In the case of `Cc1cc(CN)cc(C)c1CNc1cc(OCc2cn3cc(C4CC4)ccc3n2)ncn1` [Example 108, N-(4-(aminomethyl)-2,6-dimethylbenzyl)-6-((6-cyclopropylimidazo[1,2-a]pyridin-2-yl)methoxy)pyrimidin-4-amine], the EC50 is reported as no more than 5 nM.
Compound `O=C(Cn1c(=O)oc2ccc(Cl)cc21)Nc1cc(NCc2cn3cc(C4CC4)ccc3n2)ccn1` [Example 124, 2-(5-chloro-2-oxobenzo[d]oxazol-3 (2H)-yl)-N-(4-(((6-cyclopropylimidazo[1,2-a]pyridin-2-yl)methyl)amino)pyridin-2-yl)acetamide] has an EC50 of 500 to 9000 nM.
`CCOC(=O)c1nc(NCc2cn3cc(C4CC4)ccc3n2)cc(NC(=O)Cc2ncn3ccc(Cl)cc23)n1` [Example 20, ethyl 4-(2-(7-chloroimidazo[1,5-a]pyridin-1-yl)acetamido)-6-(((6-cyclopropylimidazo[1,2-a]pyridin-2-yl)methyl)amino)pyrimidine-2-carboxylate] was tested, and the EC50 was no more than 5 nM.
With `N#Cc1cc(C2CC2)cn2cc(CNc3cc(NC(=O)Cc4ncn5ccc(Cl)cc45)ncn3)nc12` [Example 13, 2-(7-chloroimidazo[1,5-a]pyridin-1-yl)-N-(6-(((8-cyano-6-cyclopropylimidazo[1,2-a]pyridin-2-yl)methyl)amino)pyrimidin-4-yl)acetamide] the EC50 was no more than 5 nM.
Work on `Cc1cc(N)nc(C)c1CNc1cc(NCc2cn3cc(C4CC4)ccc3n2)ncn1` [Example 111, N^4-((6-amino-2,4-dimethylpyridin-3-yl)methyl)-N^6-((6-cyclopropylimidazo[1,2-a]pyridin-2-yl)methyl)pyrimidine-4,6-diamine] yielded an EC50 of no more than 5 nM.
In the case of `Cc1cc(N)nc(C)c1CNc1cc(C(O)c2cn3cc(C4CC4)ccc3n2)ncn1` (stereo not shown) [Example 64, (6-(((6-amino-2,4-dimethylpyridin-3-yl)methyl)amino)pyrimidin-4-yl)(6-cyclopropylimidazo[1,2-a]pyridin-2-yl)methanol bisformic acid salt], the EC50 is reported as 5 to 50 nM.
Work on `CCOC(=O)CCc1nc(NCc2c(C)cc(C(=N)NO)cc2C)cc(OCc2cn3cc(C4CC4)ccc3n2)n1` [Example 73, ethyl 3-(4-((6-cyclopropylimidazo[1,2-a]pyridin-2-yl)methoxy)-6-((4-(N-hydroxycarbamimidoyl)-2,6-dimethylbenzyl)amino)pyrimidin-2-yl)propanoate] yielded an EC50 of 50 to 500 nM.
With `O=C(Cn1nnc2ccc(Cl)cc21)Nc1cc(NCc2cn3cc(C4CC4)ccc3n2)ccn1` [Example 27, 2-(6-chloro-1H-benzo[d][1,2,3]triazol-1-yl)-N-(4-(((6-cyclopropylimidazo[1,2-a]pyridin-2-yl)methyl)amino)pyridin-2-yl)acetamide] the EC50 was 500 to 9000 nM.
`COc1ccc2oc(=O)n(CC(=O)Nc3cc(NCc4cn5cc(C6CC6)ccc5n4)ncn3)c2c1` [Example 122, N-(6-(((6-cyclopropylimidazo[1,2-a]pyridin-2-yl)methyl)amino)pyrimidin-4-yl)-2-(5-methoxy-2-oxobenzo[d]oxazol-3 (2H)-yl)acetamide] gave an EC50 greater than 9000 nM.
Work on `NC(=O)Cc1cc2c(Cl)cn(-c3cc(NCc4cn5cc(C6CC6)ccc5n4)ccn3)c2cc1F` [Example 127, 2-(3-chloro-1-(4-(((6-cyclopropylimidazo[1,2-a]pyridin-2-yl)methyl)amino)pyridin-2-yl)-6-fluoro-1H-indol-5-yl)acetamide] yielded an EC50 of 500 to 9000 nM.
For `O=C(NCc1ncn2ccc(Cl)cc12)c1cnnc(OCc2cn3cc(C4CC4)ccc3n2)c1` [Example 66, N-((7-chloroimidazo[1,5-a]pyridin-1-yl)methyl)-6-((6-cyclopropylimidazo[1,2-a]pyridin-2-yl)methoxy)pyridazine-4-carboxamide], the EC50 was 5 to 50 nM.
`O=C(Cc1ncn2ccc(Cl)cc12)Nc1cc(Cc2cn3cc(C4CC4)ccc3n2)ncn1` [Example 57, 2-(7-chloroimidazo[1,5-a]pyridin-1-yl)-N-(6-((6-cyclopropylimidazo[1,2-a]pyridin-2-yl)methyl)pyrimidin-4-yl)acetamide formic acid salt] was tested, and the EC50 was no more than 5 nM.
`O=C(Cc1ncn2ccc(Cl)cc12)Nc1cnnc(OCc2cn3cc(C4CC4)ccc3n2)c1` [Example 34, 2-(7-chloroimidazo[1,5-a]pyridin-1-yl)-N-(6-((6-cyclopropylimidazo[1,2-a]pyridin-2-yl)methoxy)pyridazin-4-yl)acetamide] was tested, and the EC50 was 50 to 500 nM.

From patent US20240382482A1, “PLASMA KALLIKREIN INHIBITORS” (TAKEDA PHARMACEUTICAL COMPANY LIMITED, priority 2021, published 2024)
